Test results taken from patent US5374772A, “Substituted benzoic acids, inhibitors of phospholipases A2” (Hoffmann-LaRoche Inc., priority 1993, dated 1994).

Tests used:
[1] = biological target: T1, HSF-PLA2 (extracellular PLA2 obtained from human synovial fluid) (Homo sapiens, UniProt P14555); assay: Assay for Inhibition of HSF-PLA2 In Vitro; type: biochemical; details: for IC50: given as 50 % inhibition at the given concentration, 14C-oleate-labelled E. coli substrate, pH 7.3, 37° C., 30 minutes, read-out: % Inhib of HSF-PLA2: 50 (concentration) = IC50 (μM concentration that produces 50% inhibition of PLA2 activity)
T1 construct: extracellular enzyme obtained from human synovial fluid; from tissue; host or cells: pooled human synovial fluid (0.1% v/v in the assay)
T1 sequence (P14555 21-144): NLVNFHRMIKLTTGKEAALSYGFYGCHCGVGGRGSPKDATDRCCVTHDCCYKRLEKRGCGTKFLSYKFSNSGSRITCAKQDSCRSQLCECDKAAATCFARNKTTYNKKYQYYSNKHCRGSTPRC
Method: The PLA2 used in this test is the extracellular enzyme obtained from human synovial fluid (HSF-PLA2). The assay for HSF-PLA2 activity was a modification of the described method [Franson R., Dobrow R., Weiss, J., Elsbach P., and […]. Lipid Res., 19, 18-23 (1978)] which was conducted using [1-^14 C]-oleate-labelled E. coli substrate in excess at a final concentration of 20,000 dpm/ml. This was equivalent to 18.2 mM of cell membrane phospholipid phosphorus and 2×10^9 autoclaved E. coli/ml. The optimal conditions which were developed for the assay of HSF-PLA2 inhibitors are summarized as follows. […] The reaction was terminated by the addition of 2.5 ml of chloroform-methanol (1 to 1.5, v/v). The extraction of lipids from the stopped reaction mixture was conducted by the further additions of 0.5 ml of chloroform and 1 ml of water with mixing. […] The extracted lipid residue was redissolved in […] of a solution containing carrier oleic acid (0.2 mg/ml) of […]]). […] This TLC system rapidly (6 minutes) resolved the enzymatically released product, ^14 C-oleic acid, from the unreacted ^14 C-phospholipid substrate. The unsaturated lipids were located on the chromatogram by a brief exposure to iodine vapor. The oleic acid zone (Rf value 0.95) and phospholipid zone (origin) were cut out, chopped into small pieces, shaken with 2 ml of ethanol-water (80 to 20, v/v) and 15 ml of Aquasol and counted for radioactivity. A control incubation of substrate in the absence of HSF-PLA2 was performed in each experiment. The PLA2 activity of the human synovial fluid was corrected for this small control value. […] The specific activity of PLA2 in the pooled human synovial fluid under the optimal assay conditions was 49.2 nmoles [1-^14 C]-oleic acid released hour^-1 mg^-1. The IC50 (μM concentration of test compound that produces 50% inhibition of PLA2 activity) was determined for each test compound.

[2] = system: croton oil-induced mouse ear edema; assay: Croton Oil Mouse Ear Edema Test; type: in vivo, male CD-1 mice; details: 1 mg topical, coapplied with croton oil, ear punch weight at 6 hours
Method: The croton oil-induced mouse ear edema test, a model of irritant-induced contact dermatitis, has been used for evaluation of the PLA2 inhibitors by the topical route of administration. This test was carried out as described in the following references:
The major active ingredient in croton oil is the tumor promoter 12-O-tetradecanoylphorbol-13-acetate (TPA) and the topical application of TPA to mouse skin has been reported to cause an increase in epidermal PGE2 production as well as an increase in epidermal cell membrane PLA2 activity. Indomethacin, an inhibitor of prostaglandin synthesis, prevented the TPA-mediated increase in epidermal PGE2 levels as well as the TPA-mediated induction of epidermal cell ornithine decarboxylase. Furthermore, the application of PGE2 to mouse skin countered the inhibitory effect of indomethacin upon TPA-stimulated cellular proliferation.
Twenty five μl of a 1% croton oil solution [dissolved in a mixture of pyridine/water/diethyl ether at a ratio of 5/20/75 (croton oil vehicle)] are applied to the outer side of the right ear of 3-4 week old male CD-1 mice (8 animals per group). The test compounds are dissolved directly in the 1% croton oil solution at various concentrations and coapplied. Control animals receive 25 μl of croton oil vehicle on the right ear. Biopsy punches are removed at 6 hours from the fight ear of the animals using a 6 mm skin trephine (Roboz, Washington, D.C.) and the wet weight of the ear punches is determined. The weight of the biopsy punches is a measure of ear inflammation, primarily edema. The data are expressed as percent inhibition relative to control groups.
Statistical analysis of the mean edema values of the control versus the treated groups is performed using Student's t-test. The significance of changes from the mean value for vehicle-treated (control) animals in the following Tables is indicated as follows: *p<0.05, **p<0.01, ***p<0.005,ns/not significant.

[3] = system: myeloperoxidase in colonic mucosa; assay: Acetic Acid-Induced Colitis in Rats; type: in vivo, Male rats (Sprague-Dawley); details: 10 mg/kg orally
Text: The rat acetic acid-induced colitis bioassay has been described by J. E. Krawisz, et al. in Amer. J. Proc. Gastro. Col. Rec. Surg. 31:11-18 (1980), and by P. Sharon and W. F. Stenson in Gastroenterology 88, 55-63 (1985) and 86, 453-460 (1984). Acetic acid-induced colitis is characterized by the movement of inflammatory cells into the colon, ,with the number of such cells in the mucosa being measured by the activity of myeloperoxidase, a marker enzyme for these cells. Positive desirable activity is indicated by a reduction in the high levels of myeloperoxidase caused by acetic acid. Male rats (Sprague-Dawley), weighing 150 to 300 g, were pretreated twice daily for two days with either the vehicle (water or dimethylsulfoxide) or the test inhibitor compound suspended in water or dissolved in dimethylsulfoxide and orally administered. […] The colonic mucosa was surgically removed and homogenized in an aqueous buffer at pH 6 with a Tissumizer or similar device and myeloperoxidase was measured in the homogenate using o-phenylenediamine as a chromagen, as described by A. Voller, D. E. Bidwell and A. Bartlett in "The Enzyme Linked Immunosorbent Assay (ELISA)", Zoological Soc., London, 1979, pages 29-30. […]

[4] = system: TPA-induced mouse ear edema; assay: TPA Induced Mouse Ear Edema Test (ear punch weight); type: in vivo, male CD-1 mice; details: Mus musculus; 0.3 mg topical, 30 minutes prior to TPA, ear punch weight at 6 hours; read-out: % Inhib of TPA Mouse Ear Edema (0.3 mg)
Method: The TPA-induced mouse ear edema test, a model of irritant-induced contact dermatitis is described in the following reference: J. M. Young, B. M. Wagner and […]. Invest. Dermatology 80, 48-52 (1983). For this test, 10 μl of 12-O-tetradecanoylphorbol-13-acetate (TPA), dissolved in a vehicle of pyridine: water: diethyl ether (20:5:75), was applied to the outside of the right ear of 3-4 week old male CD-1 mice (8 animals per group). The test compounds were dissolved in the same vehicle and 10 μl was applied to the inside of the same ear 30 minutes prior to the application of TPA. Ear punches (6 mm) were removed at 6 hours after TPA application, weighed and assayed for myeloperoxidase (MPO) activity as described in the following reference: P. P. Bradley, […]. Christensen and G. Rothstein, J. Invest. Dermatology 78, 206-209 (1982). The wet weight of the ear biopsy punches is a measure of the ear edema and the level of MPO activity in the ear punches is an indicator of neutrophil infiltration. The data are expressed as percent inhibition of drug-[…] relative to the control group.

[5] = system: myeloperoxidase (MPO) activity, indicator of neutrophil infiltration; assay: TPA mouse ear test, myeloperoxidase activity in ear punches; type: in vivo, male CD-1 mice; details: 0.3 mg topically
Method: For this test, 10 μl of 12-O-tetradecanoylphorbol-13-acetate (TPA), dissolved in a vehicle of pyridine: water: diethyl ether (20:5:75), was applied to the outside of the right ear of 3-4 week old male CD-1 mice (8 animals per group). The test compounds were dissolved in the same vehicle and 10 μl was applied to the inside of the same ear 30 minutes prior to the application of TPA. Ear punches (6 mm) were removed at 6 hours after TPA application, weighed and assayed for myeloperoxidase (MPO) activity as described in the following reference: P. P. Bradley, D. A. Priebat, R. D. Christensen and G. Rothstein, J. Invest. Dermatology 78, 206-209 (1982). The wet weight of the ear biopsy punches is a measure of the ear edema and the level of MPO activity in the ear punches is an indicator of neutrophil infiltration. The data are expressed as percent inhibition of drug-treatedanimals relative to the control group.

[6] = system: carrageenan-induced paw edema; assay: Rat Carrageenan Paw Edema; type: in vivo, Lewis rats; details: 30 mg/kg ip, measured at 2 hours after carrageenan injection
Method: Representative compounds of the invention were tested in the rat carrageenan-induced paw edema test to determine their ability to inhibit this acute inflammatory response. Test compounds were administered intraperitoneally or orally to groups of seven Lewis rats (~200 gm) 1 hr prior to carrageenan administration. The test compounds were dissolved in dimethyl sulfoxide for intraperitoneal administration and dissolved or suspended in Labrafil […] for oral administration. At 0 hour, 0.1 mL of 1% carrageenan dissolved in pyrogen free saline was injected subplantarly into the right hind paw to elicit the inflammatory response. The volume (in mL) of the right hind paw was measured by immersion of the paw to the level of the lateral malleolus in an aqueous plethysmometer immediately prior to the injection of carrageenan and then at 1, 2 and 4 hr after carrageenan injection. The paw edema was calculated by subtracting the zero time reading from the readings taken after injection. The percent change of the edema volume from the vehicle treated control was calculated to determine the activity of the test compound. Statistical analysis of the mean paw edema values of the control versus the treated groups was performed using Student's t-test.

| SMILES | IC50 [1] [µM] | % Inhib of Croton Oil Mouse Ear Edema (1 mg) [2] [%] | inhibition in vivo at 0.3 mg [4] [%] | % Inhib of myeloperoxidase in the TPA mouse ear test [5] [%] | other results |
| --- | --- | --- | --- | --- | --- |
| CCCCCCCCCCCCCCCCCCOc1cc(OC(=O)C(c2ccccc2)c2ccccc2)cc(C(=O)O)c1 [Example 11, 3-(Octadecyloxy)-5-(2,2-diphenyl-1-oxoethoxy) benzoic acid] | 0.3 | 71 |  |  |  |
| CCCCCCCCCCCCCCCCCCOc1cc(OC(=O)C23CC4CC(CC(C4)C2)C3)cc(C(=O)O)c1 [Example 13, 3-(Octadecyloxy)-5-[(tricyclo[3.3.1./3,7/]dec-1-ylcarbonyl)oxy]benzoic acid] |  | 81 |  |  | inhibition at 5 µM ([1]; 5 μM, read-out: % Inhib of HSF-PLA2): 86% |
| CCCCCCCCCCCCCCCCCCOc1cc(OCCCOc2ccccc2)cc(C(=O)O)c1 [Example 17, 3-(Octadecyloxy)-5-(3-phenoxypropoxy)benzoic acid] | 1.4 | 81 |  |  |  |
| CCCCCCCCCCCCCCCCCCOc1cc(OCCCCCCc2cccc(O)c2O)cc(C(=O)O)c1 [Example 19, 3-[[6-(2,3-Dihydroxyphenyl)hexyl]oxy]-5-(octadecyloxy) benzoic acid] | 1.1 | 76 | 55 | 94 | inhibition of myeloperoxidase (acetic acid-induced colitis) [3]: 56±17% |
| CCCCCCCCCCCCCCCCCCOc1cc(OCCCOc2ccc(O)cc2)cc(C(=O)O)c1 [Example 31, 3-[3-(4-Hydroxyphenoxy)propoxy]-5-(octadecyloxy) benzoic acid] |  | 84 | 58 | 70 | inhibition of the edema (rat carrageenan paw edema) [6]: 55%; inhibition at 1 µM ([1]; 1 μM, read-out: % Inhib of HSF-PLA2): 37% |
| CCCCCCCCCCOc1cc(OCCCOc2ccc(O)cc2)cc(C(=O)O)c1 [Example 40, 3-(Decyloxy)-5-[3-(4-hydroxyphenoxy)propoxy]benzoic acid] | 8.8 |  | 58 | 72 |  |
| CCCCCCCCCCCCCCCCCCOc1cccc(C(=O)O)c1OCCCOc1ccc(O)cc1 [Example 58, 2-[3-(4-Hydroxyphenoxy)propoxy]-3-(octadecyloxy) benzoic acid] |  |  | 48 | 62 | inhibition at 10 µM ([1]; read-out: % Inhib of HSF-PLA2): 93% |
| CCCCCCCCCCCCCCOc1cc(OCCCCCCc2cccc(O)c2O)cc(C(=O)O)c1 [Example 63, 3-[[6-(2,3-dihydroxyphenyl)hexyl]oxy]-5-(tetradecyloxy)benzoic acid] |  |  | 61 | 61 | inhibition at 10 µM ([1]; read-out: % Inhib of HSF-PLA2): 88% |
| CCCCCCCCCCOc1cc(OCCCCCCc2cccc(O)c2O)cc(C(=O)O)c1 [Example 68, 3-(Decyloxy)-5-[[6-(2,3-dihydroxyphenyl)hexyl]oxy]benzoic acid] |  |  | 58 | 89 | inhibition at 20 µM ([1]; 20 μM, read-out: % Inhib of HSF-PLA2): 74% |
